In ChEMBL document CHEMBL1909046, “DrugMatrix in vitro pharmacology data” one finds IC50 and Ki data, which are given here for 21 compounds.

In data set [1] the target is Mitogen-activated protein kinase 1 (Homo sapiens, UniProt P28482). The data set is described as follows: DRUGMATRIX: Protein Serine/Threonine Kinase, ERK2 enzyme inhibition (substrate: Myelin Basic Protein). The following applies: Not Active = under 50% inhibition at 10 µM. Set-up: species or system Escherichia coli.
The target in data set [2] is 5-hydroxytryptamine receptor 2B (Homo sapiens, UniProt P41595). The data set is classed as cell membranes, CHO-K1, Membrane. The following applies: for Ki: read-out: Ki. For all read-outs here: in other assays of this panel Not Active means under 50% inhibition at 10 µM.
The target in data set [3] is Beta-3 adrenergic receptor (Homo sapiens, UniProt P13945). The data set is described as follows: DRUGMATRIX: Adrenergic beta3 radioligand binding (ligand: [125I] Cyanopindolol). It counts as cell membranes, Membrane. The conditions noted are these: hek293; Not Active = under 50% inhibition at 10 µM.
The target in a further data set is Histamine H2 receptor (Homo sapiens, UniProt P25021). It counts as cell membranes, CHO-K1, Membrane. Note: in other assays of this panel Not Active means under 50% inhibition at 10 µM.
Data set [4] addresses T1, 5-hydroxytryptamine receptor 1A (Rattus norvegicus, UniProt P19327).
T1 sequence (P19327 whole entry): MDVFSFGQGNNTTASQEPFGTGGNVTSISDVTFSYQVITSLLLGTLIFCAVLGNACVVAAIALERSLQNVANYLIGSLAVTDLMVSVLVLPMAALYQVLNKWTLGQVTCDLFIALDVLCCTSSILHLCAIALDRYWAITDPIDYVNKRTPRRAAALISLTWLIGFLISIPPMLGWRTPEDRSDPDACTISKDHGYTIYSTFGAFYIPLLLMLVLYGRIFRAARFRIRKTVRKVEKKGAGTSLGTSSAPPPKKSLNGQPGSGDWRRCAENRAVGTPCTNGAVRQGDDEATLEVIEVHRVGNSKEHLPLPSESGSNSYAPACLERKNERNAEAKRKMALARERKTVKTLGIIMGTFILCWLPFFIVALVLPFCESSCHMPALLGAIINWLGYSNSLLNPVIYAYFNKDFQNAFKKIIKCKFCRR
The data set is classed as cell membranes, Membrane. The following applies: cho-k1.

A further data set deals with T2, Thromboxane-A synthase (Homo sapiens, UniProt P24557).
T2 sequence (P24557 whole entry): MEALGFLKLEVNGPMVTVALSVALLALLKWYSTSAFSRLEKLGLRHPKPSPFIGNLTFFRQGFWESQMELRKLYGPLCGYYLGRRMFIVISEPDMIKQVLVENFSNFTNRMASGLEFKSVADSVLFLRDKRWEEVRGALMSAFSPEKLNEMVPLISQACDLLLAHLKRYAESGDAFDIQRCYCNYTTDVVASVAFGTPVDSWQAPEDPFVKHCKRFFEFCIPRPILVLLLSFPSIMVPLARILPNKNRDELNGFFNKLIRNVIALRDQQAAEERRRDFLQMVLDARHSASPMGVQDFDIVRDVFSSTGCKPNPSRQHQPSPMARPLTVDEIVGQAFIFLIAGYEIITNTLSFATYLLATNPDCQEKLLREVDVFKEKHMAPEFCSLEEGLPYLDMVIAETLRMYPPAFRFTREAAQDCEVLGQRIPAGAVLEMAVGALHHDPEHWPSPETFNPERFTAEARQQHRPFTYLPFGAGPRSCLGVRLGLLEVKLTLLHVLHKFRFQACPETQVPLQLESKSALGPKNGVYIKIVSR
The data set is described as follows: biochemical. It counts as tissue-based, Platelet. The conditions noted are these: platelet.

A further data set deals with Cytochrome P450 2C9 (Homo sapiens, UniProt P11712). The conditions noted are these: bti-tn-5b1-4.

Molecules are shown by their SMILES.
Throughout, for Ki: in other assays of this panel Not Active means under 50% inhibition at 10 µM.

Chain of Beta-3 adrenergic receptor (P13945 whole entry): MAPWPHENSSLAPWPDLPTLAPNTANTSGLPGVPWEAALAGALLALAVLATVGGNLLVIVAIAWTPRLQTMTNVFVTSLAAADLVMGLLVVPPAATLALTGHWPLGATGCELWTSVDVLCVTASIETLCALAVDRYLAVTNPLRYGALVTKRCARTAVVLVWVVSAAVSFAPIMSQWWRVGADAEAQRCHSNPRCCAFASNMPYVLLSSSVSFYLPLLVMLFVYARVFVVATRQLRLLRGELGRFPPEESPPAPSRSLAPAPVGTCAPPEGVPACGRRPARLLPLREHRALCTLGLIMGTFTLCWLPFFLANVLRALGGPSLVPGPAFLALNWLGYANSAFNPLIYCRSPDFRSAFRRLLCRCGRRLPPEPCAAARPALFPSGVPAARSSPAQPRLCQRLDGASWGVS
Chain of Cytochrome P450 2C9 (P11712 whole entry): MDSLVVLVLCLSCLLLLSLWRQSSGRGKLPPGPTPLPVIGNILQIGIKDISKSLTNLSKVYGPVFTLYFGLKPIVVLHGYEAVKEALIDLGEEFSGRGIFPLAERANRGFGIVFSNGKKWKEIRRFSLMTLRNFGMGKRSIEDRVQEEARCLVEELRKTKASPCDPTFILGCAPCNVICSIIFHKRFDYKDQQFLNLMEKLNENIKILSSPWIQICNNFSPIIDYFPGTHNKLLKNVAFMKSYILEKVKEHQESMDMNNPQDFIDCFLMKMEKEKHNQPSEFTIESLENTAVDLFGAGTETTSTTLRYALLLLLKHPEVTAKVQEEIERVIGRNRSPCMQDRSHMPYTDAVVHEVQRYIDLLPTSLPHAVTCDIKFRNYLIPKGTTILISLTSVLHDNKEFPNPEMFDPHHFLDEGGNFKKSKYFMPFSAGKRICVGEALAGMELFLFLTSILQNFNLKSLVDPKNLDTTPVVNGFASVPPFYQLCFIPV
Chain of Mitogen-activated protein kinase 1 (P28482 whole entry): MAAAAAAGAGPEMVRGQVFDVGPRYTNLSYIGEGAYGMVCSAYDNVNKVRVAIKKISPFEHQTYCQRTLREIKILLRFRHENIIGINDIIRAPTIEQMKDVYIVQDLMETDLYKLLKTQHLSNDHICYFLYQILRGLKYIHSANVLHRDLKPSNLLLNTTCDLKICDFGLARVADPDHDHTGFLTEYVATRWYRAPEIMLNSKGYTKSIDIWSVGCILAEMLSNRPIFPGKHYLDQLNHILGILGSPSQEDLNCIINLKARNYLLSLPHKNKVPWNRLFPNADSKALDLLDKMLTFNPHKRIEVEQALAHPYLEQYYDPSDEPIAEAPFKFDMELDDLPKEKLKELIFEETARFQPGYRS
Chain of Histamine H2 receptor (P25021 whole entry): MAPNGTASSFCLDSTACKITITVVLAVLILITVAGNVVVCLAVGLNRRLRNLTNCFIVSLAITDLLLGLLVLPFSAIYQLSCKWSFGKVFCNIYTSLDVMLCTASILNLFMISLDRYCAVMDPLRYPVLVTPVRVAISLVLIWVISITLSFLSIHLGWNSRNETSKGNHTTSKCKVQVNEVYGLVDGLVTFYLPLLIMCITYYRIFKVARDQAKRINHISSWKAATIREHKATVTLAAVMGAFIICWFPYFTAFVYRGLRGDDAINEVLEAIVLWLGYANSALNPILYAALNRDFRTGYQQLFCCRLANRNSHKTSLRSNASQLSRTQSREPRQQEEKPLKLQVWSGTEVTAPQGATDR
Chain of 5-hydroxytryptamine receptor 2B (P41595 whole entry): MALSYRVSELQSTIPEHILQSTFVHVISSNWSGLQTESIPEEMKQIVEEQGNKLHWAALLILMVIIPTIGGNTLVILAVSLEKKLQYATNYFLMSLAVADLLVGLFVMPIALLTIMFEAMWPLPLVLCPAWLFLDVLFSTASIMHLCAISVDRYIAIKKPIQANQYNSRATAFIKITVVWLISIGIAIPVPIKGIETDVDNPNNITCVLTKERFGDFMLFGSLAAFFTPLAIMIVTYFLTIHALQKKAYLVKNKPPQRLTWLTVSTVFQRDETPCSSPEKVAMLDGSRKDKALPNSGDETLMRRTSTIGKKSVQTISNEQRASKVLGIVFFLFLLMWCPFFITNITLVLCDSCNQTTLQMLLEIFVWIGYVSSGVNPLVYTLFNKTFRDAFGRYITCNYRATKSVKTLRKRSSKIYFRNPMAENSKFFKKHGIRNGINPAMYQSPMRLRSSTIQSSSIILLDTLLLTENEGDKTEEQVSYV

By IC50 is commonly meant the point on the concentration scale where inhibition reaches its midpoint. In the case of `COc1ccccc1C(=O)N1CCC(Cc2ccccc2)CC1`, the IC50 entry (in data set [1]; in data set [2] (cho-k1); in data set [3]; at Histamine H2 receptor (cho-k1); in data set [4]; at Thromboxane-A synthase) was “Not Active” throughout.
What is called Ki is a dissociation constant, usually derived from enzyme kinetics or from competition with a known ligand. On to `Cc1ccccc1C(=O)N1CCC(Cc2ccccc2)CC1`, for which the IC50 result in data set [1] was “Not Active”; in data set [2] (read-out: IC50), 1860 nM; in data set [3], “Not Active”; against Histamine H2 receptor (cho-k1), “Not Active”; in data set [4], “Not Active”; against Thromboxane-A synthase, “Not Active”. For the same compound, the Ki in data set [2] is 1180 nM.
Take `O=C1CC[C@H](N2C(=O)c3ccccc3C2=O)C(=O)N1`: the IC50 result (in data set [1]; at Cytochrome P450 2C9; in data set [2] (cho-k1); in data set [3]; on Histamine H2 receptor (cho-k1); in data set [4]) was “Not Active” each time. The IC50 result at Thromboxane-A synthase is listed as “Not Active”. Also, the Ki entry on Cytochrome P450 2C9 is on record as “Not Active”.
`N=C(Nc1ccccc1)Nc1ccccc1`: the half-maximal inhibitory concentration (IC50) entry (in data set [1]; at Cytochrome P450 2C9; in data set [2] (cho-k1); in data set [3]; at Histamine H2 receptor (cho-k1); in data set [4]) was “Not Active” throughout. Also, the half-maximal inhibitory concentration (IC50) entry on Thromboxane-A synthase is “Not Active”. For the same compound, the Ki result on Cytochrome P450 2C9 is listed as “Not Active”.
In the case of `CCCC(=O)Nc1ccc(OCC(O)CNC(C)C)c(C(C)=O)c1` (centres undefined) [ACEBUTOLOL], the IC50 entry (in data set [1]; in data set [2] (cho-k1); in data set [3]; at Histamine H2 receptor (cho-k1); in data set [4]; against Thromboxane-A synthase) was “Not Active” each time.
For `Cc1cc(=O)n(-c2ccccc2)n1C` [ANTIPYRINE], the 50% inhibitory concentration (IC50) entry (in data set [1]; in data set [2] (cho-k1); in data set [3]; against Histamine H2 receptor (cho-k1); in data set [4]; against Thromboxane-A synthase) was “Not Active” each time.
Turning to `O=C1CC2(CCCC2)CC(=O)N1CCCCN1CCN(c2ncccn2)CC1` [BUSPIRONE], the half-inhibitory concentration (IC50) entry was “Not Active” in data set [1]; “Not Active” at Cytochrome P450 2C9; 750 nM in data set [2] (read-out: IC50); “Not Active” in data set [3]; “Not Active” at Histamine H2 receptor (cho-k1); “Not Active” at Thromboxane-A synthase. Besides, the Ki result is “Not Active” on Cytochrome P450 2C9 and 477 nM in data set [2].
Regarding `O=NN(CCCl)C(=O)NCCCl` [CARMUSTINE], the half-inhibitory concentration (IC50) result (in data set [1]; in data set [2] (cho-k1); in data set [3]; at Histamine H2 receptor (cho-k1); in data set [4]; at Thromboxane-A synthase) was “Not Active” throughout.
In the case of `CC1=C(C(=O)O)N2C(=O)[C@@H](NC(=O)[C@H](N)c3ccccc3)[C@H]2SC1` [CEPHALEXIN ANHYDROUS], the IC50 entry (in data set [1]; in data set [2] (cho-k1); in data set [3]; against Histamine H2 receptor (cho-k1); in data set [4]; on Thromboxane-A synthase) was “Not Active” in each case.
`O=C(N[C@H](CO)[C@H](O)c1ccc([N+](=O)[O-])cc1)C(Cl)Cl` [CHLORAMPHENICOL]: the IC50 result (in data set [1]; in data set [2] (cho-k1); in data set [3]; against Histamine H2 receptor (cho-k1); in data set [4]; against Thromboxane-A synthase) was “Not Active” throughout.
With `CCOC(=O)C(C)(C)Oc1ccc(Cl)cc1` [CLOFIBRATE], the IC50 entry (in data set [1]; in data set [2] (cho-k1); in data set [3]; against Histamine H2 receptor (cho-k1); in data set [4]; at Thromboxane-A synthase) was “Not Active” each time.
Turning to `C[C@@H]1C[C@@H]([C@H](O)CC2CC(=O)NC(=O)C2)C(=O)[C@@H](C)C1` [CYCLOHEXIMIDE], the IC50 entry (in data set [1]; in data set [2] (cho-k1); in data set [3]; against Histamine H2 receptor (cho-k1); in data set [4]; at Thromboxane-A synthase) was “Not Active” each time.
`C/C=C/C[C@@H](C)[C@@H](O)[C@H]1C(=O)N[C@@H](CC)C(=O)N(C)CC(=O)N(C)[C@@H](CC(C)C)C(=O)N[C@@H](C(C)C)C(=O)N(C)[C@@H](CC(C)C)C(=O)N[C@@H](C)C(=O)N[C@H](C)C(=O)N(C)[C@@H](CC(C)C)C(=O)N(C)[C@@H](CC(C)C)C(=O)N(C)[C@@H](C(C)C)C(=O)N1C` [CYCLOSPORINE]: the IC50 result (in data set [1]; in data set [2] (cho-k1); in data set [3]; against Histamine H2 receptor (cho-k1); in data set [4]; at Thromboxane-A synthase) was “Not Active” in each case.
As for `CN(C)/N=N/c1[nH]cnc1C(N)=O` [DACARBAZINE], the concentration for half-maximal inhibition (IC50) result (in data set [1]; in data set [2] (cho-k1); in data set [3]; on Histamine H2 receptor (cho-k1); in data set [4]; against Thromboxane-A synthase) was “Not Active” in each case.
As to `CN(C)c1ccc(C(=C2C=CC(=[N+](C)C)C=C2)c2ccc(N(C)C)cc2)cc1.[Cl-]` [GENTIAN VIOLET], the half-inhibitory concentration (IC50) result in data set [1] is “Not Active”; in data set [2] (cho-k1) it was “Not Active”; in data set [3], “Not Active”; on Histamine H2 receptor (read-out: IC50), 1160 nM; in data set [4], “Not Active”; against Thromboxane-A synthase, “Not Active”. Besides, on Histamine H2 receptor (read-out: Ki), the Ki stood at 1140 nM.
Consider `NC(=O)NO` [HYDROXYUREA], for which the concentration for half-maximal inhibition (IC50) entry (in data set [1]; in data set [2] (cho-k1); in data set [3]; at Histamine H2 receptor (cho-k1); in data set [4]; at Thromboxane-A synthase) was “Not Active” in each case.
For the compound `Oc1ccc(OCc2ccccc2)cc1` [MONOBENZONE], the IC50 entry (in data set [1]; in data set [2] (cho-k1); in data set [3]; at Histamine H2 receptor (cho-k1); in data set [4]; against Thromboxane-A synthase) was “Not Active” in each case.
`COc1ccc2cc([C@H](C)C(=O)O)ccc2c1` [NAPROXEN]: the IC50 entry (in data set [1]; in data set [2] (cho-k1); in data set [3]; on Histamine H2 receptor (cho-k1); in data set [4]; against Thromboxane-A synthase) was “Not Active” throughout.
For the compound `COC(=O)C1=C(C)NC(C)=C(C(=O)OCC(C)C)C1c1ccccc1[N+](=O)[O-]` (centres undefined) [NISOLDIPINE], the 50% inhibitory concentration (IC50) entry (in data set [1]; in data set [2] (cho-k1); in data set [3]; at Histamine H2 receptor (cho-k1); in data set [4]; against Thromboxane-A synthase) was “Not Active” throughout.
Consider `CCOC(=O)C1=C(C)NC(C)=C(C(=O)OC)C1c1cccc([N+](=O)[O-])c1` (centres undefined) [NITRENDIPINE], for which the IC50 entry (in data set [1]; in data set [2] (cho-k1); in data set [3]; on Histamine H2 receptor (cho-k1); in data set [4]; against Thromboxane-A synthase) was “Not Active” each time.
With `CCn1cc(C(=O)O)c(=O)c2cc(F)c(N3CCN(C)CC3)cc21` [PEFLOXACIN], the half-maximal inhibitory concentration (IC50) entry (in data set [1]; in data set [2] (cho-k1); in data set [3]; at Histamine H2 receptor (cho-k1); in data set [4]; at Thromboxane-A synthase) was “Not Active” in each case.
